This passage reports melting point, IC50 and EC50 results from patent US7067518B2, “Pyridinyl-methyl-ethyl cyclohexanecarboxamides as serotonergic agents” (Wyeth, priority 2002, dated 2006).

Data set [1] addresses T1, human 5-HT1A receptor (Homo sapiens, UniProt P08908).
T1 construct: expressed in transfected cells; host or cells: CHO cells (stably transfected)
T1 sequence (P08908 1-422): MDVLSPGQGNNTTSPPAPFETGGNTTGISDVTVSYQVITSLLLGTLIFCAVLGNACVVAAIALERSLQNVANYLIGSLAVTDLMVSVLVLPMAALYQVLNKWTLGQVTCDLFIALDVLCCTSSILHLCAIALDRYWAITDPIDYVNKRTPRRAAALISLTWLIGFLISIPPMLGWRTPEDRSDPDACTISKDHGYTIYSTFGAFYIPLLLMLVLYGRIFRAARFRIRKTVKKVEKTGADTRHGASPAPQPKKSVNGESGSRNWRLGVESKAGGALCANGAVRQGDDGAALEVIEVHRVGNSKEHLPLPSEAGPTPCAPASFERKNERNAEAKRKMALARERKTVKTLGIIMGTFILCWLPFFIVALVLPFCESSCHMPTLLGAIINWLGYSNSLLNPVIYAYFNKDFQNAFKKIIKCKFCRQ
Nature of the data set: 5-HT1A affinity: displacement of [3H] 8-OHDPAT. In kind it is binding. Particulars: CHO cells stably transfected with the human 5-HT1A receptor. The text has this:
Affinity for the serotonin 5-HT1A receptor was established by assaying the test compound's ability to displace [^3H] 8-OHDPAT from its binding site on the receptor complex in CHO cells stably transfected with the human 5-HT1A receptor following the procedure described by J. Dunlop, Y. Zhang, D. Smith and L. Schechter (Eur. J. Pharmacol., submitted; variation of a procedure described by J. Zgombick et al., Naunyn-Schmiedeberg's Arch. Pharmacol., 354, 226–236 (1996)).
For orientation: In a radioligand displacement assay an active substance lowers the binding of a labelled ligand.

Data set [2] deals with T1, human 5-HT1A receptor. Nature of the data set: Agonist activity: reversal of forskolin stimulation of cAMP. In kind it is cell-based. Conditions: reversal of forskolin-stimulated cAMP; CHO cells stably transfected with the human 5-HT1A receptor; RIA. On the procedure: EC50 values are determined for the active test compounds. Stably transfected CHO cells were grown in DMEM containing 10% heat inactivated FBS and non-essential amino acids. The cells are plated at a density of […] per well in a 24 well plate and incubated for 2 days in a CO2 incubator. On the second day, the media is replaced with 0.5 mL treatment buffer (DMEM+25 mM HEPES, 5 mM theophylline, 10 mM pargyline) and incubated for 10 minutes at 37° C. Wells are treated with forskolin ([…]) followed immediately by the test compound ([…] for initial screen) and incubated for an additional 10 minutes at 37° C. The reaction is terminated by removal of the media and addition of 0.5 mL ice cold assay buffer (supplied in the RIA kit). Plates are stored at −20° C. prior to assessment of cAMP formation by RIA.

Data set [3] concerns the target T1, human 5-HT1A receptor. Nature of the data set: Antagonist activity: forskolin-stimulated cAMP turnover. Type of data set: cell-based. Particulars: CHO cells stably transfected with the human 5-HT1A receptor, compounds with no agonist activity (Emax=0%). The text has this:
Compounds shown to have no agonist activity (Emax=0%) are further analyzed to determine antagonist activity, as measured by the test compound's ability to inhibit forskolin-stimulated cAMP turnover in CHO cells stably transfected with the human 5-HT1A receptor using a procedure described by J. Dunlop, Y. Zhang, D. Smith and L. Schechter [Eur. J. Pharmacol., submitted; variation of a procedure described by J. Zgombick et al., Naunyn-Schmiedeberg's Arch. Pharmacol., 354, 226–236 (1996)].

SMILES strings stand for the structures. Counter-ions that a name gives are not always drawn.

For the molecule `COc1ccccc1N1CCN(C[C@@H](Cc2cccnc2)NC(=O)C2(C)CCCCC2)CC1` (as salt: fumarate) [Example 5, (R)-1-Methyl-cyclohexanecarboxylic acid {2-[4-(2-methoxy-phenyl)-piperazin-1-yl]-1-pyridin-3-ylmethyl-ethyl}-amide], the melting point (in general, the temperature of the solid-liquid transition) is 150 to 152 °C. Same read-out and setting: the value for `COc1ccccc1N1CCN(C[C@@H](Cc2ccncc2)NC(=O)C2(C)CCCCC2)CC1` (as salt: fumarate) [Example 10, (R)-1-Methyl-cyclohexanecarboxylic acid {2-[4-(2-methoxy-phenyl)-piperazin-1-yl]-1-pyridin-4-ylmethyl-ethyl}-amide] was 145 °C. `CC1(C(=O)N[C@H](Cc2ccncc2)CN2CCN(c3cccc4c3OCCO4)CC2)CCCCC1` [Example 23, 1-Methyl-cyclohexanecarboxylic acid {(1R)-2-[4-(2,3-dihydro-benzo[1,4]dioxin-5-yl)-piperazin-1-yl]-1-pyridin-4-ylmethyl-ethyl}-amide]: at human 5-HT1A receptor [1], the IC50 – broadly, the concentration needed to halve the response being measured – was 1.13 nM. In addition, the EC50 (in general, the concentration giving half of the maximal effect) at human 5-HT1A receptor [2] turned out to be 108 nM. Regarding `COc1ccccc1N1CCN(C[C@@H](Cc2ccccn2)NC(=O)C2(C)CCCCC2)CC1` [Example 15, (R)-1-Methyl-cyclohexanecarboxylic acid {2-[4-(2-methoxy-phenyl)-piperazin-1-yl]-1-pyridin-2-ylmethyl-ethyl}-amide], the figures for the concentration for half-maximal inhibition (IC50) on human 5-HT1A receptor [1] and at human 5-HT1A receptor [3] were 0.74 nM and 4.5 nM, respectively. Turning to `CN(C(=O)C1CCCCC1)[C@H](Cc1cccnc1)CN1CCN(c2cccc3c2OCCO3)CC1` [Example 24, Cyclohexanecarboxylic acid {(1R)-2-[4-(2,3-dihydro-benzo[1,4]dioxin-5-yl)-piperazin-1-yl]-1-pyridin-3-ylmethyl-ethyl}-methyl-amide], the IC50 is 2.48 nM on human 5-HT1A receptor [1] and 77 nM on human 5-HT1A receptor [3]. `COc1ccccc1N1CCN(C[C@@H](Cc2ccncc2)NC(=O)C2CCCCC2)CC1` [Example 9, (R)-Cyclohexanecarboxylic acid {2-[4-(2-methoxy-phenyl)-piperazin-1-yl]-1-pyridin-4-ylmethyl-ethyl}-amide] returned an IC50 on human 5-HT1A receptor [1] of 0.56 nM. Further, at human 5-HT1A receptor [2], the EC50 is 141 nM. For `COc1ccccc1N1CCN(C[C@@H](Cc2ccncc2)NC(=O)C2(C)CCCCC2)CC1` [Example 10, (R)-1-Methyl-cyclohexanecarboxylic acid {2-[4-(2-methoxy-phenyl)-piperazin-1-yl]-1-pyridin-4-ylmethyl-ethyl}-amide], the IC50 on human 5-HT1A receptor [1] turned out to be 0.72 nM; on human 5-HT1A receptor [3] it was 11.3 nM. As to `COc1ccccc1N1CCN(C[C@@H](Cc2ccccn2)NC(=O)C2CCCCC2)CC1` [Example 14, (R)-Cyclohexanecarboxylic acid {2-[4-(2-methoxy-phenyl)-piperazin-1-yl]-1-pyridin-2-ylmethyl-ethyl}-amide], the half-maximal inhibitory concentration (IC50) on human 5-HT1A receptor [1] was 1.26 nM. The EC50 at human 5-HT1A receptor [2] was 53 nM. Consider `COc1ccccc1N1CCN(C[C@@H](Cc2ccccn2)NC(=O)C2(C)CCCCC2)CC1` (as salt: fumarate) [Example 15, (R)-1-Methyl-cyclohexanecarboxylic acid {2-[4-(2-methoxy-phenyl)-piperazin-1-yl]-1-pyridin-2-ylmethyl-ethyl}-amide], for which the melting point is 135 to 139 °C. With `COc1ccccc1N1CCN(C[C@@H](Cc2ccccn2)NC(=O)C2CCCCC2)CC1` (as salt: fumarate) [Example 14, (R)-Cyclohexanecarboxylic acid {2-[4-(2-methoxy-phenyl)-piperazin-1-yl]-1-pyridin-2-ylmethyl-ethyl}-amide], the melting point lay in the range of 136 to 141 °C. Take `COc1ccccc1N1CCN(C[C@@H](Cc2ccccn2)N(C)C(=O)C2(C)CCCCC2)CC1` (as salt: fumarate) [Example 18, 1-Methyl-cyclohexanecarboxylic acid {(1R)-2-[4-(2-methoxy-phenyl)-piperazin-1-yl]-1-pyridin-2-ylmethyl-ethyl}-methyl-amide]: the melting point was in the range of 145 to 146 °C.

Turning to `CC1(C(=O)N[C@H](Cc2cccnc2)CN2CCN(c3cccc4c3OCCO4)CC2)CCCCC1` (as salt: hydrochloride) [Example 22, 1-Methyl-cyclohexanecarboxylic acid {(1R)-2-[4-(2,3-dihydro-benzo[1,4]dioxin-5-yl)-piperazin-1-yl]-1-pyridin-3-ylmethyl-ethyl}-amide], the melting point was in the range of 188 to 190 °C. `COc1ccccc1N1CCN(C[C@@H](Cc2cccnc2)NC(=O)C2CCCCC2)CC1` (as salt: maleate) [Example 4, (R)-Cyclohexanecarboxylic acid {2-[4-(2-methoxy-phenyl)-piperazin-1-yl]-1-pyridin-3-ylmethyl-ethyl}-amide] displayed a melting point of 112 to 115 °C. Regarding `COc1ccccc1N1CCN(C[C@@H](Cc2ccncc2)NC(=O)C2CCCCC2)CC1` (as salt: maleate) [Example 9, (R)-Cyclohexanecarboxylic acid {2-[4-(2-methoxy-phenyl)-piperazin-1-yl]-1-pyridin-4-ylmethyl-ethyl}-amide], the melting point was in the range of 145 to 147 °C. As for `COc1ccccc1N1CCN(C[C@@H](Cc2cccnc2)NC(=O)C2CCCCC2)CC1` [Example 4, (R)-Cyclohexanecarboxylic acid {2-[4-(2-methoxy-phenyl)-piperazin-1-yl]-1-pyridin-3-ylmethyl-ethyl}-amide], at human 5-HT1A receptor [1], the concentration for half-maximal inhibition (IC50) stood at 0.48 nM. Further, the EC50 at human 5-HT1A receptor [2] amounted to 20.5 nM.

In the case of `CC1(C(=O)N[C@H](Cc2ccncc2)CN2CCN(c3cccc4c3OCCO4)CC2)CCCCC1` (as salt: hydrochloride) [Example 23, 1-Methyl-cyclohexanecarboxylic acid {(1R)-2-[4-(2,3-dihydro-benzo[1,4]dioxin-5-yl)-piperazin-1-yl]-1-pyridin-4-ylmethyl-ethyl}-amide], the melting point was 188 to 190 °C. Take `CN(C(=O)C1CCCCC1)[C@H](Cc1cccnc1)CN1CCN(c2cccc3c2OCCO3)CC1` (as salt: hydrochloride) [Example 24, Cyclohexanecarboxylic acid {(1R)-2-[4-(2,3-dihydro-benzo[1,4]dioxin-5-yl)-piperazin-1-yl]-1-pyridin-3-ylmethyl-ethyl}-methyl-amide]: the melting point fell in the range of 167 to 170 °C. In the case of `COc1ccccc1N1CCN(C[C@@H](Cc2cccnc2)NC(=O)C2(C)CCCCC2)CC1` [Example 5, (R)-1-Methyl-cyclohexanecarboxylic acid {2-[4-(2-methoxy-phenyl)-piperazin-1-yl]-1-pyridin-3-ylmethyl-ethyl}-amide], the half-inhibitory concentration (IC50) is 0.88 nM at human 5-HT1A receptor [1] and 13.2 nM at human 5-HT1A receptor [3]. In the case of `CN(C(=O)C1CCCCC1)[C@H](Cc1ccncc1)CN1CCN(c2cccc3c2OCCO3)CC1` [Example 25, Cyclohexanecarboxylic acid {(1R)-2-[4-(2,3-dihydro-benzo[1,4]dioxin-5-yl)-piperazin-1-yl]-1-pyridin-4-ylmethyl-ethyl}-methyl-amide], the IC50 came to 3.81 nM on human 5-HT1A receptor [1] and 115 nM at human 5-HT1A receptor [3]. `CN(C(=O)C1CCCCC1)[C@H](Cc1ccncc1)CN1CCN(c2cccc3c2OCCO3)CC1` (as salt: hydrochloride) [Example 25, Cyclohexanecarboxylic acid {(1R)-2-[4-(2,3-dihydro-benzo[1,4]dioxin-5-yl)-piperazin-1-yl]-1-pyridin-4-ylmethyl-ethyl}-methyl-amide] yielded a melting point of 167 to 170 °C.

`COc1ccccc1N1CCN(C[C@@H](Cc2ccccn2)N(C)C(=O)C2(C)CCCCC2)CC1` [Example 18, 1-Methyl-cyclohexanecarboxylic acid {(1R)-2-[4-(2-methoxy-phenyl)-piperazin-1-yl]-1-pyridin-2-ylmethyl-ethyl}-methyl-amide]: the half-inhibitory concentration (IC50) on human 5-HT1A receptor [1] is 3 nM; at human 5-HT1A receptor [3], 132 nM.
